Reference: paper PMC6211316, “Synthesis and biological evaluation of 3-arylcoumarin derivatives as potential anti-diabetic agents” (Journal of Enzyme Inhibition and Medicinal Chemistry, 2018)

Assays:
[1] = tested on: STZ-induced diabetic mice; assay: Daily treatment for 16 days in STZ-induced diabetic mice; type: in vivo; details: for bw loss in hyperglycemic mice: 30 mg/kg of bw daily per os, 16 days; for long-term anti-hyperglycemic effect (blood glucose levels): 30 mg/kg of bw oral, once a day, for 16 days
Protocol: Thereafter, the target compounds 11, 17, 35, and glibenclamide were administered once (9 a.m.) on a daily basis, for a period of 16 days, to STZ-induced diabetic mice which were divided into five groups (A-E). A six group of normal mice (Group F) was used as a control. Groups E (diabetic control) and F received vehicle (0.05% Tween-80 in saline solution) per os for 16 days. Group A received glibenclamide (10 mg/kg of bw daily). Groups B–D received different treatments: B, compound 11 (30 mg/kg of bw daily); C, compound 17 (30 mg/kg of bw daily); D, compound 35 (30 mg/kg of bw daily). All tested materials were suspended in the same vehicle and administered per os daily for 16 days. The animals were housed under standard laboratory conditions and maintained with free access to water and food during all the experiment. Blood glucose concentration on animals of diabetic (Groups A–E) and control group (Group F) was estimated at days 1, 4, 7, 10, 13, and 16. The bw of the animals were measured concomitantly to the blood glucose analyses. All experiments were carried out using six animals per group.

AGEs formation = assay: In vitro inhibitory activity of AGEs formation (bovine serum albumin/glucose); type: biochemical; details: mean ± SD (n = 3)
Summary of the method: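 Bovine serum albumin (10 mg/mL) with 0.2 M glucose in 50 mM PBS, pH 7.4, plus 0.02% sodium azide, was mixed with compound solutions (0.5–1000 μg/mL in DMSO) and held 14 d at 37 °C. AGE fluorescence was read at ex 350/em 420 nm in triplicate. Inhibition was corrected with glucose-free blanks, and IC50 calculated.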

STZ-diabetic mice = assay: Acute hypoglycemic assay in STZ-diabetic mice; type: in vivo; details: for Blood glucose concentration / % Variation of glycemia: STZ-diabetics mice; for highest anti-hyperglycemic effect: STZ-diabetic mice
Protocol: Type II diabetes mellitus was induced in mice by a single intraperitoneal injection of freshly prepared STZ (Sigma Aldrich) dissolved in 0.1M citrate buffer, pH 4.5, in a volume of 110 mg/kg of bw. After 7 days of STZ administration, blood glucose levels of each mouse were determined. Mice with blood glucose levels higher than 11 mM were considered diabetic and were included in the study.
STZ-induced diabetic mice and normal mice were placed in single cages with wire-net floors and deprived of food for 12 h before experimentation but allowed free access to tap water throughout. The compounds (at the doses of 10, 30, and 100 mg/kg of bw) were suspended in 0.05% Tween-80 in saline solution. Glibenclamide (10 mg/kg of bw) was suspended in the same vehicle. The target compounds were freshly prepared immediately before experimentation and administered by the intragastrical route at the doses of 10 ml/kg of bw. Control mice received only the vehicle (0.05% Tween-80 in saline solution) by the same route. Blood glucose levels were measured at 0, 1.5, 3, 5, 7, and 9 h after drugs administration.

[2] = hydroxyl radical scavenging; details: mean ± SD (n = 3), read-out: OH IC50 Value
Summary of the method: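 Fenton system of H2O2 (0.03%), FeSO4 (2 mmol/L) and salicylic acid (10 mmol/L) with compound solutions (0.4–2.0 mg/mL), incubated 30 min at 37 °C. Absorbance read at 510 nm. % OH scavenging = [A0−(A1−A2)]/A0×100, with A2 a sample blank using ethanol in place of salicylic acid.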

| Structure (SMILES) | IC50 (AGEs formation) [µM] | Blood glucose concentration (STZ-diabetic mice; 10 mg/kg of bw per os, 0h) [mM] | % Variation of glycemia (STZ-diabetic mice; 10 mg/kg of bw per os, 1.5h) | Blood glucose concentration (STZ-diabetic mice; 10 mg/kg of bw per os, 1.5h) [mM] | % Variation of glycemia (STZ-diabetic mice; 10 mg/kg of bw per os, 3h) | Blood glucose concentration (STZ-diabetic mice; 10 mg/kg of bw per os, 3h) [mM] | % Variation of glycemia (STZ-diabetic mice; 10 mg/kg of bw per os, 5h) | Blood glucose concentration (STZ-diabetic mice; 10 mg/kg of bw per os, 5h) [mM] | % Variation of glycemia (STZ-diabetic mice; 10 mg/kg of bw per os, 7h) | Blood glucose concentration (STZ-diabetic mice; 10 mg/kg of bw per os, 7h) [mM] | % Variation of glycemia (STZ-diabetic mice; 10 mg/kg of bw per os, 9h) | Blood glucose concentration (STZ-diabetic mice; 10 mg/kg of bw per os, 9h) [mM] | Blood glucose concentration (STZ-diabetic mice; 30 mg/kg of bw per os, 0h) [mM] | % Variation of glycemia (STZ-diabetic mice; 30 mg/kg of bw per os, 1.5h) | Blood glucose concentration (STZ-diabetic mice; 30 mg/kg of bw per os, 1.5h) [mM] | % Variation of glycemia (STZ-diabetic mice; 30 mg/kg of bw per os, 3h) | Blood glucose concentration (STZ-diabetic mice; 30 mg/kg of bw per os, 3h) [mM] | % Variation of glycemia (STZ-diabetic mice; 30 mg/kg of bw per os, 5h) | Blood glucose concentration (STZ-diabetic mice; 30 mg/kg of bw per os, 5h) [mM] | % Variation of glycemia (STZ-diabetic mice; 30 mg/kg of bw per os, 7h) | other results |
| --- | --- | --- | --- | --- | --- | --- | --- | --- | --- | --- | --- | --- | --- | --- | --- | --- | --- | --- | --- | --- | --- |
| Cc1ccccc1-c1cc2ccc(O)cc2oc1=O [Compound 11, 7-Hydroxy-3-(2-methylphenyl)-coumarin] | > 1000 | 24.9 ± 4.1 | (−17.27) % | 20.6 ± 5.9 | (−37.75) % | 15.5 ± 8.5 | (−48.59) % | 12.8 ± 10.4 | (−54.22) % | 11.4 ± 8.2 | (−52.21) % | 11.9 ± 8.5 | 25.3 ± 6.3 | (−20.95) % | 20.0 ± 6.3 | (−34.78) % | 16.5 ± 6.4 | (−55.41) % | 11.3 ± 4.0 | (−62.40) % | bw loss in hyperglycemic mice [1]: prevented bw loss; long-term anti-hyperglycemic effect (blood glucose levels) [1]: less efficient in decreasing blood glucose levels; Blood glucose concentration (STZ-diabetic mice; 30 mg/kg of bw per os, 7h): 9.5 ± 3.9 mM; % Variation of glycemia (STZ-diabetic mice; 30 mg/kg of bw per os, 9h): (−68.14) %; Blood glucose concentration (STZ-diabetic mice; 30 mg/kg of bw per os, 9h): 8.1 ± 4.2 mM; Blood glucose concentration (STZ-diabetic mice; 100 mg/kg of bw per os, 0h): 23.5 ± 5.4 mM; % Variation of glycemia (STZ-diabetic mice; 100 mg/kg of bw per os, 1.5h): (−21.88) %; Blood glucose concentration (STZ-diabetic mice; 100 mg/kg of bw per os, 1.5h): 18.3 ± 3.9 mM; % Variation of glycemia (STZ-diabetic mice; 100 mg/kg of bw per os, 3h): (−34.89) %; Blood glucose concentration (STZ-diabetic mice; 100 mg/kg of bw per os, 3h): 15.3 ± 3.9 mM; % Variation of glycemia (STZ-diabetic mice; 100 mg/kg of bw per os, 5h): (−52.76) %; Blood glucose concentration (STZ-diabetic mice; 100 mg/kg of bw per os, 5h): 11.1 ± 4.4 mM; % Variation of glycemia (STZ-diabetic mice; 100 mg/kg of bw per os, 7h): (−62.21) %; Blood glucose concentration (STZ-diabetic mice; 100 mg/kg of bw per os, 7h): 8.9 ± 2.8 mM; % Variation of glycemia (STZ-diabetic mice; 100 mg/kg of bw per os, 9h): (−65.27) %; Blood glucose concentration (STZ-diabetic mice; 100 mg/kg of bw per os, 9h): 8.2 ± 2.6 mM; IC50 [2]: > 1000 µM |
| O=c1oc2ccc(O)cc2cc1-c1ccc(O)cc1 [Compound 17, 6-Hydroxy-3-(4-hydroxyphenyl)-coumarin] | 24.68 ± 0.12 | 26.9 ± 3.8 | (−8.92) % | 24.5 ± 3.0 | (−15.24) % | 22.8 ± 2.3 | (−38.29) % | 16.6 ± 5.8 | (−44.98) % | 14.8 ± 8.0 | (−45.35) % | 14.7 ± 9.5 | 23.3 ± 3.2 | (−23.18) % | 17.9 ± 5.7 | (−50.22) % | 11.6 ± 4.8 | (−64.38) % | 8.3 ± 3.8 | (−68.24) % | bw loss in hyperglycemic mice [1]: prevented bw loss; long-term anti-hyperglycemic effect (blood glucose levels) [1]: induced obviously anti-hyperglycemic effect; hypoglycemic effect (STZ-diabetic mice; STZ-diabetic animals, 30 mg/kg of bw, started from 3 h and persisted throughout the experiment): > 50%; highest anti-hyperglycemic effect (STZ-diabetic mice; 30 mg/kg, at 9 h): ~70.39%; highest anti-hyperglycemic effect (STZ-diabetic mice; 100 mg/kg, at 7 h): ~70.51%; Blood glucose concentration (STZ-diabetic mice; 30 mg/kg of bw per os, 7h): 7.4 ± 6.7 mM; % Variation of glycemia (STZ-diabetic mice; 30 mg/kg of bw per os, 9h): (−70.39) %; Blood glucose concentration (STZ-diabetic mice; 30 mg/kg of bw per os, 9h): 6.9 ± 7.9 mM; Blood glucose concentration (STZ-diabetic mice; 100 mg/kg of bw per os, 0h): 23.4 ± 5.7 mM; % Variation of glycemia (STZ-diabetic mice; 100 mg/kg of bw per os, 1.5h): (−19.66) %; Blood glucose concentration (STZ-diabetic mice; 100 mg/kg of bw per os, 1.5h): 18.8 ± 6.0 mM; % Variation of glycemia (STZ-diabetic mice; 100 mg/kg of bw per os, 3h): (−46.58) %; Blood glucose concentration (STZ-diabetic mice; 100 mg/kg of bw per os, 3h): 12.5 ± 4.7 mM; % Variation of glycemia (STZ-diabetic mice; 100 mg/kg of bw per os, 5h): (−67.52) %; Blood glucose concentration (STZ-diabetic mice; 100 mg/kg of bw per os, 5h): 7.6 ± 3.8 mM; % Variation of glycemia (STZ-diabetic mice; 100 mg/kg of bw per os, 7h): (−70.51) %; Blood glucose concentration (STZ-diabetic mice; 100 mg/kg of bw per os, 7h): 6.9 ± 2.6 mM; % Variation of glycemia (STZ-diabetic mice; 100 mg/kg of bw per os, 9h): (−65.81) %; Blood glucose concentration (STZ-diabetic mice; 100 mg/kg of bw per os, 9h): 8.0 ± 2.3 mM; IC50 [2]: > 1000 µM |
| Cc1ccc(-c2cc3c(O)cc(O)cc3oc2=O)cc1 [Compound 25, 5,7-Dihydroxy-3-(4-methylphenyl)-coumarin] | 45.8 ± 1.27 | 19.7 ± 6.1 | (−20.30) % | 15.7 ± 6.6 | (−24.37) % | 14.9 ± 6.5 | (−50.76) % | 9.7 ± 3.4 | (−64.97) % | 6.9 ± 3.9 | (−56.85) % | 8.5 ± 2.2 | 24.8 ± 4.9 | (−12.50) % | 21.7 ± 3.9 | (−36.23) % | 15.8 ± 4.5 | (−64.11) % | 8.9 ± 6.3 | (−63.71) % | Blood glucose concentration (STZ-diabetic mice; 30 mg/kg of bw per os, 7h): 9.0 ± 4.8 mM; % Variation of glycemia (STZ-diabetic mice; 30 mg/kg of bw per os, 9h): (−64.11) %; Blood glucose concentration (STZ-diabetic mice; 30 mg/kg of bw per os, 9h): 8.9 ± 3.8 mM; Blood glucose concentration (STZ-diabetic mice; 100 mg/kg of bw per os, 0h): 23.0 ± 4.8 mM; % Variation of glycemia (STZ-diabetic mice; 100 mg/kg of bw per os, 1.5h): (−20.44) %; Blood glucose concentration (STZ-diabetic mice; 100 mg/kg of bw per os, 1.5h): 18.3 ± 3.5 mM; % Variation of glycemia (STZ-diabetic mice; 100 mg/kg of bw per os, 3h): (−25.36) %; Blood glucose concentration (STZ-diabetic mice; 100 mg/kg of bw per os, 3h): 17.2 ± 2.9 mM; % Variation of glycemia (STZ-diabetic mice; 100 mg/kg of bw per os, 5h): (−56.95) %; Blood glucose concentration (STZ-diabetic mice; 100 mg/kg of bw per os, 5h): 9.9 ± 2.7 mM; % Variation of glycemia (STZ-diabetic mice; 100 mg/kg of bw per os, 7h): (−64.78) %; Blood glucose concentration (STZ-diabetic mice; 100 mg/kg of bw per os, 7h): 8.1 ± 1.6 mM; % Variation of glycemia (STZ-diabetic mice; 100 mg/kg of bw per os, 9h): (−60.43) %; Blood glucose concentration (STZ-diabetic mice; 100 mg/kg of bw per os, 9h): 9.1 ± 2.3 mM; IC50 [2]: > 1000 µM |
